Consider 2 molecules from patent US20210378281A1, “INHIBITION OF SENSORY IRRITATION DURING CONSUMPTION OF NON-SMOKEABLE TOBACCO PRODUCTS” (priority 2010, published 2021).

Values joined by “and” are separate entries in the source; they are usually repeats but may differ in a detail not shown here. Identical values can stand only once. “Also recorded” adds a separate entry of the source.

The test system of data set [1] is tongues of human volunteers. Briefly: pre-treatment with camphor on sensory irritation from nicotine, tongues of human volunteers. The class given is in vivo. The conditions noted are these: camphor 25, 50 or 100 ppm, 20 microliters on strip for 30 seconds before 0.1-0.3% nicotine. The source says:
FIGS. 1 and 2 show the results of a study on the effect of pre-treatment with camphor on sensory irritation from nicotine. Camphor was applied to tongues of human volunteers prior to application of a nicotine solution. Randomized sides of tongues were selected for application of 20 microliters of 0 ppm, 25 ppm, 50 ppm, or 100 ppm of camphor on a strip (thus, about […], respectively) for 30 seconds. Then, the subjects sipped, rinsed, then spit 0.1%, 0.2%, or 0.3% of a nicotine solution for a 5 second application. Participants were then asked which side of the tongue has the strongest burning sensation. Responses were collected both immediately (within 5 seconds) (FIG. 1) and after 30 seconds (FIG. 2). Controls received no camphor, and a baseline was established at zero camphor.

Data set [2] concerns mouth of subjects using oral tobacco. Kind of data set: snus pouches with camphor, perceived burning in the mouth, 2AFC design. The format is in vivo, human. Here is the method:
A further study was conducted to determine if camphor affected perceived burning in the mouth of subjects using oral tobacco. Participants were given two snus pouch samples to use simultaneously, one in each side of the mouth. One sample was a control pouch with no camphor added and the other contained various concentrations of camphor ([…], based on tobacco weight, respectively). The hand-made test samples were constructed using unflavored tobacco (12% oven volatiles) to prevent any possible interference of the flavor system with the objective of the study. In preparing the pouches, the camphor was dissolved in 95% ethanol, with the control pouches receiving the ethanol only. Ten (10) microliters of one of the solutions was applied to each sample pouch (5 microliters per side). […] Responses were recorded on paper by the experimenter. […] Following each evaluation, participants were asked to give details regarding where the burning was felt and to provide any open-ended comments regarding their experience, which were recorded on paper by the experimenter. Participants repeated the sensory evaluation procedures an additional six (6) times, with a maximum of two (2) pairs being evaluated each day.

A further data set relates to nerve fibers. The conditions noted are these: isolated mouse trachea model; cited from earlier work.
The next data set concerns mouth of participants. Kind of data set: threshold of irritation from camphor, oral sip and swish of camphor solution. The format is in vivo, human. Also on record: key to irritation felt at 200 ppm / irritation felt at 300 ppm / irritation felt at 400 ppm / irritation felt at 1000 ppm / irritation felt at 2000 ppm / irritation felt at 4000 ppm / irritation felt at 6000 ppm: Y: the participant felt irritation at the indicated concentration; N: no irritation was felt. The method, then: A further study was conducted to determine the threshold at which camphor itself would cause sensory irritation.
Each test used two milliliters (2 ml) of a camphor solution. The camphor was dissolved in ethanol and further diluted in water. Participants received sequentially increasing concentration of camphor. Nine participants received samples including food grade racemic camphor, with concentrations of 200, 300, 400, […] 1000, 2000, 4000, 6000 ppm (corresponding to about […] per sample, respectively).
Participants wore nose clips during evaluation. Each participant sipped the sample, swished it in the mouth for 10 seconds, then spat it out. Each participant then indicated whether irritation was perceived. Between evaluations of each sample, participants rinsed with water and waited for one minute.
The left-most column indicates the participant number of each individual participant.

Another data set concerns TRPV1 receptors. The following applies: increasing their responsiveness; J. Neurophysiol., 91: 1482-1491, 2004; cited from earlier work.
Another data set concerns the target TRPA1 receptors (Homo sapiens, UniProt O75762). The conditions noted are these: cited from earlier work.

TRPA1 receptors, sequence (O75762 whole entry): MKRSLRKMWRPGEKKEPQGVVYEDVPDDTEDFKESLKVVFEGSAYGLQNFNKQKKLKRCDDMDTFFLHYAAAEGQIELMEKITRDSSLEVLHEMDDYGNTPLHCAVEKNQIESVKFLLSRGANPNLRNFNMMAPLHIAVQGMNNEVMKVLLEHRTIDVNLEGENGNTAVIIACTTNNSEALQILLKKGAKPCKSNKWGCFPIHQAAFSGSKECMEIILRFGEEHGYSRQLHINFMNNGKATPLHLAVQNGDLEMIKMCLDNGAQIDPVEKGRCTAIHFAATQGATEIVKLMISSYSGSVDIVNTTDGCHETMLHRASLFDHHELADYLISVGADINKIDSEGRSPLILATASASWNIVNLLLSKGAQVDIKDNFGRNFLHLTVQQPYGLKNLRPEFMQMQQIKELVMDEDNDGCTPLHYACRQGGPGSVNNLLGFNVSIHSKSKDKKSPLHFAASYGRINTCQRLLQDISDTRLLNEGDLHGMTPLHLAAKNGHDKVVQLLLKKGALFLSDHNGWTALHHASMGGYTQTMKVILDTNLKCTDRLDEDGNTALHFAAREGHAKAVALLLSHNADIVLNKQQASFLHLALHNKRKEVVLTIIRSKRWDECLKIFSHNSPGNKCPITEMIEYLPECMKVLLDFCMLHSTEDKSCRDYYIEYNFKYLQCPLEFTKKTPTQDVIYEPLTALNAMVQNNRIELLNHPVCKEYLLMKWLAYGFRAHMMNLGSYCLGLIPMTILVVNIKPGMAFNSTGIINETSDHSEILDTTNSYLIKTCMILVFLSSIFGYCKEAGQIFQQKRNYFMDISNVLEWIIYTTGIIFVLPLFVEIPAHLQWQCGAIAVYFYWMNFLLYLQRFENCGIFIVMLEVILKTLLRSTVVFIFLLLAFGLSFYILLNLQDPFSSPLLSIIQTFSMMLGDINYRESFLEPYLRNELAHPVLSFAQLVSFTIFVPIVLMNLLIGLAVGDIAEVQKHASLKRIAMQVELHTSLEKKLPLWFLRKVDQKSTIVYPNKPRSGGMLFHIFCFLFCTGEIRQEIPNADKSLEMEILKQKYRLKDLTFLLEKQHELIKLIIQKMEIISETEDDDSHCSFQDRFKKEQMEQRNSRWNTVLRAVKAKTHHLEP

Take `CC12CCC(CC1=O)C2(C)C` (racemic) [camphor]: the “perceived burning from nicotine, 30 seconds after initial exposure” value in data set [1] (response after 30 seconds) is given as “significantly reduced perceived burning from nicotine”. Also, the “perceived burning from nicotine, immediately” value in data set [1] (response immediately (within 5 seconds)) was “significantly reduced perceived burning from nicotine”. In addition, the “time at which the effect was strongest” value in data set [2] (12 nanogram (50 ppm) camphor pouch, asked at 2, 5 and 10 minutes) is listed as 10 min. Besides, in data set [2] (12 nanogram (corresponding to 50 ppm) camphor per pouch versus control pouch), the “reduction of oral burning from snus pouch” value was “most effective in reducing oral burning”. Besides, the “inhibition of activation of nerve fibers induced by the nicotinic agonist nicotine” value with nerve fibers is given as “effectively inhibit activation of nerve fibers”. Besides, the “irritation felt at 200 ppm” value in the data set on mouth of participants (200 ppm camphor, 2 ml solution, swished 10 seconds, one line per participant) was “Y (3×) and N (6×)”. Further, the “irritation felt at 300 ppm” value in the data set with mouth of participants (300 ppm camphor, 2 ml solution, swished 10 seconds, one line per participant) was “Y (3×) and N (6×)”. For the same molecule, the “irritation felt at 400 ppm” value with mouth of participants (400 ppm camphor, 2 ml solution, swished 10 seconds, one line per participant) is “Y (4×) and N (4×)”. Also, the “irritation felt at 1000 ppm” value with mouth of participants (1000 ppm camphor, 2 ml solution, swished 10 seconds, one line per participant) is “N and Y (2×)”. Also, in the data set with mouth of participants (2000 ppm camphor, 2 ml solution, swished 10 seconds, one line per participant), the “irritation felt at 2000 ppm” value was “Y”. The “irritation felt at 4000 ppm” value in the data set on mouth of participants (4000 ppm camphor, 2 ml solution, swished 10 seconds, one line per participant) is reported as “Y”. The “irritation felt at 6000 ppm” value in the data set with mouth of participants (6000 ppm camphor, 2 ml solution, swished 10 seconds, one line per participant) is “Y”. Moreover, the “concentration at which a few participants were sensitive” value in the data set with mouth of participants (a few participants, sensitive only at higher concentrations) was 1000-2000 ppm. Also, in the data set on mouth of participants (most participants), the “concentration at which most participants perceived tingling” value was 200-300 ppm. In addition, the “mean threshold for producing irritation” value in the data set on mouth of participants (n=9) turned out to be 655 ppm. Further, in the data set with mouth of participants (one line per participant, concentrations in ppm), the “Notes (sensation described by participant)” value is “Tingling at 300, tingling no burning; also recorded: No Burning, slight tingling on edges; also recorded: Some burning and stinging at 200,”.

Turning to `CN1CCCC1c1cccnc1` (stereo not drawn) [nicotine], the “sensitization of TRPV1 receptors” value with TRPV1 receptors is “sensitize TRPV1 receptors”. Also, at TRPA1 receptors, the “sensitization of TRPA1 receptors” value is “as well as TRPA1 receptors”.
